Laboratory results from patent EP1121436B1, “NON-DESENSITIZING AMPA-RECEPTORS” (Max-Planck-Gesellschaft zur Förderung der Wissenschaften …, priority 1998, dated 2000).

Columns and labels:
GluR3 L507Y = biological target: T1, GluR3 L507Y (Rattus norvegicus, UniProt P19492, L507Y); assay: Responses to quisqualate and AMPA and effect of cyclothiazide (outside-out patch); type: cell-based
T1 construct: expressed in transfected cells; host or cells: HEK293, transient, pCDNA3

GluR3flip = biological target: T2, GluR3flip (Rattus norvegicus, UniProt P19492); assay: Block of desensitization by cyclothiazide added to the agonist solution (outside-out patch); type: cell-based; conditions: cyclothiazide 100µM added to the agonist solution (10 mM glutamate)
T2 construct: expressed in transfected cells; host or cells: HEK293 (ATCC CRL 1573), transient, pcDNA3
T2 sequence (P19492 23-888 isoform P19492-2 limits assumed): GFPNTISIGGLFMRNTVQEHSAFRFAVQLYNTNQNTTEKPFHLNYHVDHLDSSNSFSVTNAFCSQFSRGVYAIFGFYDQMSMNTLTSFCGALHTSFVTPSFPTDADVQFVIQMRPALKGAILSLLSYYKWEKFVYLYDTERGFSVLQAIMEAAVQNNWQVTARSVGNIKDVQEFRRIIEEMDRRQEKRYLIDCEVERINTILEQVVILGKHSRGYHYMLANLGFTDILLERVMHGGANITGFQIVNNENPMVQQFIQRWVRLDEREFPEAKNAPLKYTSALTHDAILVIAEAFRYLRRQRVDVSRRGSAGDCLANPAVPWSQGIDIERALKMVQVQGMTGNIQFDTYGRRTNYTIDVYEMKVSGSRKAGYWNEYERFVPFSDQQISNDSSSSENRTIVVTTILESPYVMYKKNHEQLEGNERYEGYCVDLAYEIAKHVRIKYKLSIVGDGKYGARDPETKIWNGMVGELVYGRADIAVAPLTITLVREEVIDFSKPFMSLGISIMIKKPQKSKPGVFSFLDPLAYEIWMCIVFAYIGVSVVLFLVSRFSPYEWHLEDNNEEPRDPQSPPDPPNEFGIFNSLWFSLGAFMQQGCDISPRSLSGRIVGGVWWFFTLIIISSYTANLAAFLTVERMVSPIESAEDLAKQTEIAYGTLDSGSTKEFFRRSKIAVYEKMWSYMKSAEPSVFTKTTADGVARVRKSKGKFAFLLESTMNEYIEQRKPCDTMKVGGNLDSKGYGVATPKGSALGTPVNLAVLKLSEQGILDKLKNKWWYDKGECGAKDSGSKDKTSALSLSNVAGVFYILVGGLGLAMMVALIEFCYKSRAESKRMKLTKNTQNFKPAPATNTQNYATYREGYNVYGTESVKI

R6TM1R3 = biological target: T3, R6TM1R3 (Rattus norvegicus, UniProt P19492+P42260, A582S/A630S/C576V/C595R/D598Q/D600P/D669E/D672E/E603P/E625D/E665V/E681A/F612L/G615S/H593E/I581V/I639V/INS589HLED/INS599P/K629R/K679E/L568V/L569F/L572I/L608I/L609F/L619F/L626I/M627S/N596D/N605E/P592E/S624C/T607G/T633G/V580L/V601D/V602P/V616L/Y566C/Y590N); assay: Effect of cyclothiazide on the peak response to glutamate (outside-out patch); type: cell-based; conditions: 100 µM cyclothiazide added to the agonist solution, n=13
T3 construct: the entire extracellular N-terminal region of GluR3flip was substituted by the corresponding region of GluR6; expressed in transfected cells; host or cells: HEK293, transient
T3 sequence (P42260+P19492 fused with the stated changes): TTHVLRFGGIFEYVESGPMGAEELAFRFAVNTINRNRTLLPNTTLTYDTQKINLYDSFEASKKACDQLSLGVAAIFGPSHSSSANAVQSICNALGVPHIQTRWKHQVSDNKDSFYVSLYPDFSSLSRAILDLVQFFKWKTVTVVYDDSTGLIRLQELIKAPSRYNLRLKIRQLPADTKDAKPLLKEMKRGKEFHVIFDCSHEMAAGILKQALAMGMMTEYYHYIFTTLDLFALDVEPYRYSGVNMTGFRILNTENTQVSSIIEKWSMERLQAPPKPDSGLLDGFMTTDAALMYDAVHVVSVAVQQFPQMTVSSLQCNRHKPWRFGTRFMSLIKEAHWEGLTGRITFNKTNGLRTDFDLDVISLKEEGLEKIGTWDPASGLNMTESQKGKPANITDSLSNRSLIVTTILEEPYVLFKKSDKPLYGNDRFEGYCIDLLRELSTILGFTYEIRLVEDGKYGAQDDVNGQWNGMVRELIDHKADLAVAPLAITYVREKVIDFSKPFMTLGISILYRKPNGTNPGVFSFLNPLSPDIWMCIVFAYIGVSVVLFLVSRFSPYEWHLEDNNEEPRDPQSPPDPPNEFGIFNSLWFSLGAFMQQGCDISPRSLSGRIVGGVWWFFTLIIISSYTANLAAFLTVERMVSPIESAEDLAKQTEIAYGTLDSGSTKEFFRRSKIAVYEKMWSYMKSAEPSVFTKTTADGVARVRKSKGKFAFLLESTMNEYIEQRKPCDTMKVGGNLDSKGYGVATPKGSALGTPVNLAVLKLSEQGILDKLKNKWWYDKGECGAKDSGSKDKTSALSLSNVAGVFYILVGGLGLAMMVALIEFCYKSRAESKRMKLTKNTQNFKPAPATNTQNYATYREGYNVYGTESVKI

R3(R6S1) = assay: as above; type: cell-based, rat; conditions: 100 µM cyclothiazide added to the agonist solution, n=10
[1] = system: T504A, E511K or their combined exchange; type: cell-based, rat
R6TM1R3(Y521L) = biological target: T4, R6TM1R3(Y521L) (Rattus norvegicus, UniProt P19492+P42260, A582S/A630S/C576V/C595R/D598Q/D600P/D669E/D672E/E603P/E625D/E665V/E681A/F612L/G615S/H593E/I581V/I639V/INS589HLED/INS599P/K629R/K679E/L568V/L569F/L572I/L608I/L609F/L619F/L626I/M627S/N596D/N605E/P592E/S624C/T607G/T633G/V580L/V601D/V602P/V616L/Y521L/Y566C/Y590N); assay: Responses to kainate and effect of cyclothiazide (outside-out patch); type: cell-based; conditions: glutamate evoked current in the presence of 100 µM cyclothiazide
T4 construct: the entire extracellular N-terminal region of GluR3flip was substituted by the corresponding region of GluR6; expressed in transfected cells; host or cells: HEK293, transient
T4 sequence (P42260+P19492 fused with the stated changes): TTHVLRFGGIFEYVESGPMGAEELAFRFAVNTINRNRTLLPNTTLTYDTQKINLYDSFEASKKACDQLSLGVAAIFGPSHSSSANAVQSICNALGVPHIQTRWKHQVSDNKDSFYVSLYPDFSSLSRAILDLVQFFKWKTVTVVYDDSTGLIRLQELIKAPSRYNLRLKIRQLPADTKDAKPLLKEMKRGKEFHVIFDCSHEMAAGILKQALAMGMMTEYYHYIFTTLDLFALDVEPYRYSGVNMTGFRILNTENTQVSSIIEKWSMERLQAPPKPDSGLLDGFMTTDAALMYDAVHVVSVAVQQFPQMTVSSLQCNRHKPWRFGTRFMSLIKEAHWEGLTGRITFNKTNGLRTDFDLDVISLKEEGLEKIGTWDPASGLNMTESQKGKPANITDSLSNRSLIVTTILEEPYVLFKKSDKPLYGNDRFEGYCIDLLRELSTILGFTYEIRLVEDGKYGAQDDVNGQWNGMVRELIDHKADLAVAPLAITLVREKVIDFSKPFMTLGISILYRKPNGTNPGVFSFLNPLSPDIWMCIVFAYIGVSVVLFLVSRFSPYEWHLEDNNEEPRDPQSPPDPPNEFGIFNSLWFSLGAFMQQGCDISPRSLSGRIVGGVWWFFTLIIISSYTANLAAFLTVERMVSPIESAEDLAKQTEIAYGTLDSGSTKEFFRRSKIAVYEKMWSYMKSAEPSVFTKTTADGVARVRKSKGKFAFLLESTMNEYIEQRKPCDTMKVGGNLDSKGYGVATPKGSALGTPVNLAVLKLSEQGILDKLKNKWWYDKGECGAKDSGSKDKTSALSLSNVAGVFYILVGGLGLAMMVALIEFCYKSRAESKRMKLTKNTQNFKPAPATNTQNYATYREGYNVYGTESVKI

GluR3-S1 chimeras = assay: Responses to saturating kainate concentrations compared with glutamate (outside-out patch); type: cell-based, rat; conditions: saturating kainate concentrations (5-10 mM)

T1 sequence (P19492 23-888 isoform P19492-2 L507Y limits assumed): as the sequence (P19492 23-888 isoform P19492-2 limits assumed) above, with L485Y counted along it

Cc1onc(O)c1CC(N)C(=O)O (racemic) [AMPA, (RS)-alpha-amino-3-hydroxy-5-methyl-4-isoxazoleepropionic acid]
P/S (GluR3 L507Y; agonist 1 mM): 1.05±0.03 | efficacy of opening, ratio glutamate/agonist (GluR3 L507Y; n=7): 0.97±0.03

NS(=O)(=O)c1cc2c(cc1Cl)NC(C1CC3C=CC1C3)NS2(=O)=O (stereo not drawn) [cyclothiazide]
P/S values (GluR3flip): ~1 | inhibition at 100 µM (R6TM1R3): 14 ± 4% | inhibition of the peak response (R3(R6S1)): 12±3% | reduction of peak response (GluR3 L507Y; cyclothiazide (100 µM)): 9.6±2.7% | effect on desensitization (result in words) [1]: completely blocked | effect on desensitization (result in words) (R6TM1R3(Y521L)): Desensitization was blocked

C=C(C)[C@H]1CN[C@H](C(=O)O)[C@H]1CC(=O)O [kainate]
desensitization of responses (result in words) (GluR3-S1 chimeras): essentially non-desensitizing
